The text below walks through data of patent US9695151B2, “3,4-dihydro-2H-isoquinoline-1-one and 2,3-dihydro-isoindol-1-one compounds” (Hoffmann-La Roche Inc., priority 2013, dated 2017).

Usually EC50 stands for the concentration needed to bring the measured effect to its halfway point. Low values mean higher potency in that assay, high ones lower potency in that assay.

The target in assay [1] is T1, CYP11B2 (Homo sapiens (Human), UniProt P19099). The assay can be described thus: G-402 cellular enzyme assay, human CYP11B2 (aldosterone release). It is filed as cell-based. To be noted: G-402 cells, 1 μM Deoxycorticosterone. The source says:
(§1) Herein we identified the use of the G-402 cell line as a host cell to ectopically express (transiently or stably) enzymes of the CYP11 family. Specifically we developed stable G-402 cells expressing ectopically human CYP11B1, human CYP11B2, human CYP11A1, cynmolgus CYP11B1 or cynomolgus CYP11B2 enzyme activity. Importantly the identified cell line G-402 expresses co-factors (adrenodoxin and adrenodoxin reductase) important for the activity of the CYP11 family and no relevant enzyme activity of the CYP11 family (in comparison to H295R cells) was detected in these cells. Therefore the G-402 cell line is uniquely suited as a host cell for the ectopic expression of enzymes from the CYP11 family.
(§2) G-402 cells can be obtained from ATCC (CRL-1440) and were originally derived from a renal leiomyoblastoma.
(§3) The expression plasmids contains the ORF for either human/cyno CYP11B1 or CYP11B2 under the control of a suitable promoter (CMV-promoter) and a suitable resistance marker (neomycin). Using standard techniques the expression plasmid is transfected into G-402 cells and these cells are then selected for expressing the given resistance markers. Individual cell-clones are then selected and assessed for displaying the desired enzymatic activity using 11-Deoxycorticosterone (Cyp11B2) or 11-Deoxycortisol (Cyp11B1) as a substrate.
(§4) G-402 cells expressing CYP11 constructs were established as described above and maintained in McCoy's 5a Medium Modified, ATCC Catalog No. 30-2007 containing 10% FCS and 400 μg/ml G418 (Geneticin) at 37° C. under an atmosphere of 5% CO2/95% air. Cellular enzyme assays were performed in DMEM/F12 medium containing 2.5% charcoal treated FCS and appropriate concentration of substrate (0.3-10 uM 11-Deoxycorticosterone, 11-Deoxycortisol or Corticosterone). For assaying enzymatic activity, cells were plated onto 96 well plates and incubated for 16 h. An aliquot of the supernatant is then transferred and analyzed for the concentration of the expected product (Aldosterone for CYP11B2; Cortisol for CYP11B1). The concentrations of these steroids can be determined using HTRF assays from CisBio analyzing either Aldosterone or Cortisol.
(§5) Inhibition of the release of produced steroids can be used as a measure of the respective enzyme inhibition by test compounds added during the cellular enzyme assay. The dose dependent inhibition of enzymatic activity by a compound is calculated by means of plotting added inhibitor concentrations (x-axes) vs. measured steroid/product level (y-axes). The inhibition is then calculated by fitting the following 4-parameter sigmoidal function (Morgan-Mercer-Flodin (MMF) model) to the raw data points using the least squares method:
(§6) [formula] wherein, A is the maximum y value, B is the EC50 factor determined using XLFit, C is the minimum y value and D is the slope value.
(§7) EC50 values for compounds claimed herein were tested with the G402-based assay system described. Cyp11B2 enzyme activity was tested in presence of 1 μM Deoxycorticosterone and variable amounts of inhibitors; Cyp11B1 enzyme activity was tested in presence of 1 μM Deoxycortisol and variable amounts of inhibitors.

A further assay has as its target human CYP11B1 (Homo sapiens (Human), UniProt P15538). Put plainly: G-402 cellular enzyme assay, human CYP11B1 (cortisol release). The following applies: G-402 cells, 1 μM Deoxycortisol. It is filed as cell-based.
From the text: as §1, §2, §3, §4, §5, §6, §7

Assay [2] has as its system rat model of chronic kidney disease. The following applies: cited from earlier work; for cardiac and aortic medial hypertrophy / renal effects (albuminuria, azotemia, renovascular hypertrophy, glomerular injury, PAI-1 and osteopontin mRNA, tubulointerstitial fibrosis): angiotensin II and high salt treatment; for angiotensin II and salt-stimulated PAI-1 mRNA expression: aorta and heart.

Assay [3] relates to rats with experimental heart failure. The following applies: rat, in vivo; cited from earlier work.
Assay [4] addresses T1, CYP11B2. To be noted: patients with primary aldosteronism, oral; cited from earlier work.

T1 sequence (P19099 25-503): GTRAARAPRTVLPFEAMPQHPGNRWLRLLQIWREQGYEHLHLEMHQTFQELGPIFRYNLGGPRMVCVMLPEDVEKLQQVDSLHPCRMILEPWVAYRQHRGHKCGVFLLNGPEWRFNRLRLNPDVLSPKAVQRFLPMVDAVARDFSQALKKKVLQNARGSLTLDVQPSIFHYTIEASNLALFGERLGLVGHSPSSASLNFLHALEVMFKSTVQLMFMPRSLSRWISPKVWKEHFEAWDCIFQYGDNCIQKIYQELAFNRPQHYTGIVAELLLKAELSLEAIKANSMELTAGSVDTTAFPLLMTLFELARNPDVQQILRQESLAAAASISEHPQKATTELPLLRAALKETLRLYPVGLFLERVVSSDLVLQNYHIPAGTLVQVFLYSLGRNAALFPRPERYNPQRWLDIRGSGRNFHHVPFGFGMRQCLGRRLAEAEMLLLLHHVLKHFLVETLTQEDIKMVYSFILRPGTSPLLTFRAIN
human CYP11B1, sequence (P15538 25-503): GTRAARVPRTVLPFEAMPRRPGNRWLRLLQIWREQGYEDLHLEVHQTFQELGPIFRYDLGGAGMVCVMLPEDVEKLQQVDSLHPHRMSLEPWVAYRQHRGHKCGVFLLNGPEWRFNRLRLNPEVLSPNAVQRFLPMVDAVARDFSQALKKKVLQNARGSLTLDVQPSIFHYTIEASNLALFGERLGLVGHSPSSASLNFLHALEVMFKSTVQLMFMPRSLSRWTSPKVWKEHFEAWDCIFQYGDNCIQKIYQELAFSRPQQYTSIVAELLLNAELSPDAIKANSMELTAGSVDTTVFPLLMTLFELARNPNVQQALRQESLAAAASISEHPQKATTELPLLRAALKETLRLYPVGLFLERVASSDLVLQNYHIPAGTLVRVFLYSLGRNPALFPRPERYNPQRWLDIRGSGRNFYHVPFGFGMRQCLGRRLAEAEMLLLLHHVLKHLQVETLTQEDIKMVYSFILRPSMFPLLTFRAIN

For the molecule `CCS(=O)(=O)N1CC(Nc2cncc(N3C(=O)c4ccc(Cl)cc4C3C)c2)C1` (stereo not drawn) [Example 34, 5-Chloro-2-[5-[(1-ethylsulfonylazetidin-3-yl)amino]pyridin-3-yl]-3-methyl-3H-isoindol-1-one], the figures for the EC50 on CYP11B2 [1] and on human CYP11B1 were 70 nM and 4530 nM, respectively.
The like results for `CC(=O)N1CC2(CC(Nc3cncc(N4C(=O)c5ccc(Cl)cc5C4(C)C)c3)C2)C1` [Example 35, 2-[5-[(2-Acetyl-2-azaspiro[3.3]heptan-6-yl)amino]pyridin-3-yl]-5-chloro-3,3-dimethylisoindol-1-one] were, in that order, 449 nM and 6850 nM.
Take `CCC(=O)N1CC2(CC(Nc3cncc(N4C(=O)c5ccc(Cl)cc5C4(C)C)c3)C2)C1` [Example 36, 5-Chloro-3,3-dimethyl-2-[5-[(2-propanoyl-2-azaspiro[3.3]heptan-6-yl)amino]pyridin-3-yl]isoindol-1-one]: the results for the EC50 at CYP11B2 [1] and on human CYP11B1 were 44 nM and 15400 nM, respectively.
Taken in the same sequence, the figures for `CCS(=O)(=O)N1CC2(CC(Nc3cncc(N4C(=O)c5ccc(Cl)cc5C4(C)C)c3)C2)C1` [Example 37, 5-Chloro-2-[5-[(2-ethylsulfonyl-2-azaspiro[3.3]heptan-6-yl)amino]pyridin-3-yl]-3,3-dimethylisoindol-1-one] were 10 nM and 7370 nM.
Taken in the same sequence, the figures for `CC(C)S(=O)(=O)N1CC2(CC(Nc3cncc(N4C(=O)c5ccc(Cl)cc5C4(C)C)c3)C2)C1` [Example 38, 5-Chloro-3,3-dimethyl-2-[5-[(2-propan-2-ylsulfonyl-2-azaspiro[3.3]heptan-6-yl)amino]pyridin-3-yl]isoindol-1-one] were 11 nM and 8240 nM.
Turning to `CCS(=O)(=O)N1CCC(Nc2cncc(N3C(=O)c4ccc(C#N)cc4C3(C)C)c2)CC1` [Example 43, 2-[5-[(1-Ethylsulfonyl-4-piperidyl)amino]-3-pyridyl]-3,3-dimethyl-1-oxo-isoindoline-5-carbonitrile], the EC50 at CYP11B2 [1] is 13 nM; at human CYP11B1, 4570 nM.
Regarding `CCC(=O)N1CCC(Nc2cncc(N3C(=O)c4ccc(C#N)cc4C3(C)C)c2)CC1` [Example 44, 3,3-Dimethyl-1-oxo-2-[5-[(1-propanoyl-4-piperidyl)amino]-3-pyridyl]isoindoline-5-carbonitrile], the results for the EC50 on CYP11B2 [1] and at human CYP11B1 were 22 nM and 6990 nM, respectively.
As to `CCC(=O)N1CC(Nc2cncc(N3C(=O)c4ccc(C#N)cc4C3(C)C)c2)C1` [Example 45, 3,3-Dimethyl-1-oxo-2-[5-[(1-propanoylazetidin-3-yl)amino]-3-pyridyl]isoindoline-5-carbonitrile], the EC50 on CYP11B2 [1] was 122 nM; at human CYP11B1, 5930 nM.
As to `N#Cc1ccc([C@H]2CCCc3cncn32)cc1` [FAD286], in assay [2], the “cardiac and aortic medial hypertrophy” value was “attenuated”; the “renal effects (albuminuria, azotemia, renovascular hypertrophy, glomerular injury, PAI-1 and osteopontin mRNA, tubulointerstitial fibrosis)” value was “prevented”; the “angiotensin II and salt-stimulated PAI-1 mRNA expression” value is “not”. Besides, in assay [2] (following 4 weeks of treatment), the plasma aldosterone result is recorded as “reduced”. Moreover, in assay [3], the “blood pressure and cardiovascular function and structure” value is “improved”; the “kidney function and morphology” value was “improve”.
For `N#Cc1ccc([C@H]2CCc3cncn32)c(F)c1` [LCI699], at CYP11B2 [4], the blood pressure result is recorded as “mildly decreased”, the circulating aldosterone levels result is “significantly lower”, the hypokalemia result is listed as “corrected” and the “selectivity (effects on the glucocorticoid axis)” value is recorded as “poor selectivity”.
Turning to `CC(=O)S[C@@H]1CC2=CC(=O)CC[C@]2(C)[C@H]2CC[C@@]3(C)[C@@H](CC[C@@]34CCC(=O)O4)[C@H]12` [spironolactone], in assay [2], the “cardiac and aortic medial hypertrophy” value is given as “attenuated”; the “renal effects (albuminuria, azotemia, renovascular hypertrophy, glomerular injury, PAI-1 and osteopontin mRNA, tubulointerstitial fibrosis)” value is given as “prevented”; the “angiotensin II and salt-stimulated PAI-1 mRNA expression” value was “enhanced”. Besides, in assay [2] (at 4 and 8 weeks of treatment), the aldosterone entry was “increased”.
